Data as given in ChEMBL document CHEMBL1201862, “PubChem BioAssay data set” (2004).
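Exposure lasted 48 hours, with cells grown in 96-well plates and compounds tested at five concentrations. GI50: concentration for 50% inhibition of growth.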 Calls of active or inactive are those of the source. Cut-off read from the data, not from the text of the source: active = GI50 up to about 1.1 µM and inactive = higher.

Assays:
Test in all cases: NCI tumour cell line growth inhibition, 48 h
[1] = system: NCI-H460
[2] = system: A549
[3] = system: CCRF-CEM
[4] = system: MCF7
[5] = system: UACC-62
[6] = system: SK-OV-3
[7] = system: U-251
[8] = system: MDA-MB-231
[9] = system: KM12
[10] = system: HCT-15
[11] = system: OVCAR-4
[12] = system: Hs-578T
[13] = system: NCI-H23
[14] = system: PC-3
[15] = system: NCI/ADR-RES
[16] = system: A498
[17] = system: RXF 393
[18] = system: SF-539
[19] = system: OVCAR-3

Structure (SMILES)	GI50 [1]	GI50 [2]	GI50 [3]	GI50 [4]	GI50 [5]	GI50 [6]	GI50 [7]	GI50 [8]	GI50 [9]	GI50 [10]	GI50 [11]	GI50 [12]	GI50 [13]	GI50 [14]	GI50 [15]	GI50 [16]	GI50 [17]	GI50 [18]	GI50 [19]
Cc1nnc(N)nc1C/C=C/C(C)Sc1ccc(Cl)cc1 (stereo not drawn)	7.55 µM (inactive)	7 µM (inactive)	2.33 µM (inactive)	5.28 µM (inactive)	5.33 µM (inactive)	4.52 µM (inactive)	8.93 µM (inactive)	20.1 µM (inactive)	4.7 µM (inactive)	12.8 µM	10.1 µM (inactive)	7.14 µM (inactive)	5.47 µM (inactive)	4.35 µM (inactive)	9.79 µM (inactive)	6.32 µM (inactive)	7.28 µM (inactive)		
COc1ccc2c(c1)CC[C@@H]1C2CC[C@]2(C)C(=O)N(C)C(=O)CC12 (stereo partly drawn)	> 100 µM (inactive)	> 100 µM (inactive)	> 100 µM (inactive)	> 100 µM (inactive)	> 100 µM (inactive)	> 100 µM (inactive)	75.9 µM (inactive)	> 100 µM (inactive)	> 100 µM (inactive)		> 100 µM (inactive)	42 µM (inactive)	> 100 µM (inactive)	> 100 µM (inactive)		> 100 µM (inactive)	38.1 µM (inactive)	> 100 µM (inactive)	> 100 µM (inactive)
C=C1CN=C(Nc2ccc(F)cc2F)S1	> 100 µM (inactive)	> 100 µM (inactive)	18.3 µM (inactive)	28 µM (inactive)		> 100 µM (inactive)	> 100 µM (inactive)	> 100 µM (inactive)	> 100 µM (inactive)	> 100 µM	> 100 µM (inactive)	> 100 µM (inactive)	> 100 µM (inactive)	> 100 µM (inactive)	> 100 µM (inactive)	> 100 µM (inactive)		> 100 µM (inactive)	
C/C(CC(O)(/C=N/O)c1ccccc1)=N/O (stereo not drawn)	> 100 µM (inactive)	> 100 µM (inactive)	> 100 µM (inactive)	> 100 µM (inactive)		> 100 µM (inactive)	> 100 µM (inactive)	> 100 µM (inactive)	> 100 µM (inactive)	> 100 µM	> 100 µM (inactive)	> 100 µM (inactive)	> 100 µM (inactive)	> 100 µM (inactive)	99.8 µM (inactive)			> 100 µM (inactive)	> 100 µM (inactive)
CC(C)=CC1C(COC(=O)c2ccccc2Cl)C1(C)C (stereo not drawn)	35.7 µM (inactive)	36.9 µM (inactive)	56.8 µM (inactive)		> 100 µM (inactive)		30.1 µM (inactive)	49.7 µM (inactive)	30.4 µM (inactive)	25.6 µM	42.2 µM (inactive)	19 µM (inactive)	31.8 µM (inactive)	41.3 µM (inactive)	41.2 µM (inactive)	> 100 µM (inactive)	24.9 µM (inactive)		26.1 µM (inactive)
C/C=C/C/C=C/CCC(=O)C1OC1C(N)=O (stereo not drawn)	12.8 µM (inactive)	20.7 µM (inactive)	11.4 µM (inactive)	14.5 µM (inactive)	15.9 µM (inactive)	35.1 µM (inactive)	16.8 µM (inactive)	16.5 µM (inactive)	15.3 µM (inactive)	12.6 µM	11.6 µM (inactive)	22.8 µM (inactive)	14.9 µM (inactive)	15.4 µM (inactive)	20 µM (inactive)		9.4 µM (inactive)	15.2 µM (inactive)	18.7 µM (inactive)
CCCCNC(=S)N/N=C/c1cccc(C)n1	32.4 µM (inactive)	32.4 µM (inactive)	6.9 µM (inactive)	37.8 µM (inactive)	25.6 µM (inactive)	59.8 µM (inactive)	44.2 µM (inactive)	35.7 µM (inactive)	31.3 µM (inactive)	47.6 µM	55.1 µM (inactive)	> 100 µM (inactive)	59.3 µM (inactive)	47 µM (inactive)	29 µM (inactive)	36.1 µM (inactive)		29.7 µM (inactive)	> 100 µM (inactive)
COc1ccc(/C(=N/N=c2\[nH]c3ccccc3n2Cc2ccccc2)C(=O)O)cc1	4.8 µM (inactive)	23 µM (inactive)	3.97 µM (inactive)	13.2 µM (inactive)	8.36 µM (inactive)	13.7 µM (inactive)	11.1 µM (inactive)	23.3 µM (inactive)	17.5 µM (inactive)	12.6 µM	7.76 µM (inactive)	31.7 µM (inactive)	14.1 µM (inactive)	7.41 µM (inactive)	5.19 µM (inactive)	13.1 µM (inactive)		23.7 µM (inactive)	2.52 µM (inactive)
C=C(c1ccccc1)c1ccccc1-c1cc(-c2ccccc2)cc(-c2ccccc2)n1	> 100 µM (inactive)	> 100 µM (inactive)	84.9 µM (inactive)	> 100 µM (inactive)	74.6 µM (inactive)		> 100 µM (inactive)	> 100 µM (inactive)	> 100 µM (inactive)	> 100 µM		> 100 µM (inactive)	> 100 µM (inactive)	> 100 µM (inactive)	> 100 µM (inactive)	> 100 µM (inactive)	> 100 µM (inactive)	> 100 µM (inactive)	76.6 µM (inactive)
